Laboratory results as given in paper PMC5642477, “Phosphodiesterase 10A is overexpressed in lung tumor cells and inhibitors selectively suppress growth by blocking β-catenin and MAPK signaling” (Oncotarget, 2017).

Assays:
PDE8A = PDE8A (Homo sapiens, UniProt O60658); experiment: IMAP fluorescence polarization PDE assay, recombinant PDE isozymes; type: biochemical; set-up: key: Inactive: >100 µmol/L shows no inhibition; conditions: substrate cAMP
Description: (§1) The enzymatic activity of recombinant PDE or PDE activities in cell lysates were measured using the IMAP fluorescence polarization (FP) PDE assay (Molecular Devices) as previously described. PDE10 inhibitors and DMSO as the vehicle were added to assay buffer 10 minutes before the incubation with the enzyme reaction. Fluorescence polarization values were measured using Synergy H4 Hybrid Reader (BioTek).

PDE9A = PDE9A (Homo sapiens, UniProt O76083); experiment: as above; type: biochemical; set-up: key: Inactive: >100 µmol/L shows no inhibition; conditions: substrate cGMP
Description: as §1

PDE7A = PDE7A (Homo sapiens, UniProt Q13946); experiment: as above; type: biochemical; set-up: key: Inactive: >100 µmol/L shows no inhibition; conditions: substrate cAMP
Description: as §1

PDE6A/B = experiment: as above; type: biochemical; set-up: key: Inactive: >100 µmol/L shows no inhibition; conditions: substrate cGMP
Description: as §1

H1299 cells = experiment: Growth assay (Cell Titer Glo); type: cell-based, human; conditions: Homo sapiens, NCI-H1299; H1299, 72 hours, 5% serum; read-out: Growth inhibition IC50
Description: (§2) Cells were plated in half area 96-well microtiter plates (Corning) at a density of 3, 000 cells per well. For drug treatment, cells were treated with compound or DMSO as vehicle (final concentration at 0.2%). For siRNA assays, cells were transfected with siRNAs under the same condition as described above. The effect of treatment on cell growth was measured using the Cell Titer Glo (CTG) assay (Promega) as specified by the measurement of viable cells based on ATP content after 72 hours standard culture. All growth assay involving NSCLCs and NHAECs were performed in the presence of 5% serum.
(§3) Drug effects on cell growth and IC50 values were determined as described previously. All experiments were repeated a minimum of three times to determine the reproducibility of the results. All error bars represent standard error of the mean (SEM). Statistical analysis was performed using Student’s t test or other as indicated. A P value of <0.05 was considered statistically significant.

HOP62 cells = experiment: Growth assay (Cell Titer Glo); type: cell-based, human
Description: as §2, §3

[1] = system: MAPK signaling in H1299 cells; experiment: Western blotting, RAF/MAPK signaling; type: cell-based, human
Description: (§4) Whole cell extraction was performed according to a previously described method using cell lysing buffer (Cell Signaling) supplemented with 10 mmol/L NaF for protein phosphorylation studies. Cell lysates were separated by 4-12% gradient, 7% or 10% pre-casting PAGE (Novex/Invitrogen) followed by electrophoretic transfer to a nitrocellulose membrane. Western blotting procedures were performed using Chemiluminescence Reagent (Pierce) and visualized using Chemi Doc Imaging System (BioRad).

[2] = system: HOP62 cells (shCTL vector control); experiment: Colony formation assay; type: cell-based, human
Description: (§5) The transient knockdown of PDE10 in NSCLC cells by PDE10-specific siRNA and scramble siRNA control was performed using RNAiMAX reagent (Invitrogen) as previously described. Effects of siRNA on NSCLC cell growth and PDE10 expression levels were measured after 72 hours of treatment. For a stable knockdown of PDE10, GIPZ lentiviral short hairpin RNA (shRNA) vectors targeting human PDE10, nonsilencing GPIZ lentiviral control vector, and transduction kit were purchased from Open Biosystems. Lentiviral particles of shRNA were produced in HEK293T cells (ATCC) according to the manufacturer’s instructions. HOP62 NSCLC cells were transfected by the lentivirus particles followed by puromycin (5 μg/mL) selection. Stable expression cell lines with shRNA of PDE10 (shPDE10) or lentiviral vector control (shCTL) were obtained by limited dilution for single cell clone and confirmed by Western blotting.
(§6) For colony formation assays, 200 viable cells were plated in 6-well tissue culture plates and were cultured in RPMI medium supplemented with 5% serum. DMSO (0.2%) as the vehicle and different concentrations of PQ10 were added to the cell culture medium for 14 days of treatment. Colonies were counted after staining with crystal violet as previously described.

[3] = system: HOP62 PDE10 knockdown cells (shPDE10); experiment: Colony formation assay; type: cell-based, human
Description: as §5, §6

β-catenin in H1299 cells = experiment: Western blotting, β-catenin phosphorylation; type: cell-based, human; conditions: H1299 cells
Description: as §4

Chain of PDE8A (O60658 whole entry): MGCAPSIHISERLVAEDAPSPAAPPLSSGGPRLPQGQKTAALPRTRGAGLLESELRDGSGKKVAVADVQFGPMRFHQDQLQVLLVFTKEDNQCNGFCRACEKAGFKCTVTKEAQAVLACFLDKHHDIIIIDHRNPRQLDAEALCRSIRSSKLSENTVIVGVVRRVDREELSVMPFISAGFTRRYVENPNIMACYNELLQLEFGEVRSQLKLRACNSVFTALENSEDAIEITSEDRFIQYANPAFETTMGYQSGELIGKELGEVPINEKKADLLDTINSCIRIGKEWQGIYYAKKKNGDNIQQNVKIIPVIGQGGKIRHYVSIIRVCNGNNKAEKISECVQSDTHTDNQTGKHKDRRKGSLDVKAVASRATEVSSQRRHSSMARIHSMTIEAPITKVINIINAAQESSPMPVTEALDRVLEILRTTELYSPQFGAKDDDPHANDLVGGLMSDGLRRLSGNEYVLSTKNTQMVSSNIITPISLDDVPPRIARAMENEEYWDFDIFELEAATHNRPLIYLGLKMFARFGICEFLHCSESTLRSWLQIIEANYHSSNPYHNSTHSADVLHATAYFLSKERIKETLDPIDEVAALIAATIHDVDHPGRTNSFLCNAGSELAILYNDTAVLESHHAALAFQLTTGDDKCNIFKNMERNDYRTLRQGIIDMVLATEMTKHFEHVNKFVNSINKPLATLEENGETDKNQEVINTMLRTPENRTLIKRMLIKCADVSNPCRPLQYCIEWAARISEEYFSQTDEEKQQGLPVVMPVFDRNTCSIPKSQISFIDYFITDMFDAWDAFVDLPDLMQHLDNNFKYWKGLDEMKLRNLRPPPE
Chain of PDE7A (Q13946 whole entry): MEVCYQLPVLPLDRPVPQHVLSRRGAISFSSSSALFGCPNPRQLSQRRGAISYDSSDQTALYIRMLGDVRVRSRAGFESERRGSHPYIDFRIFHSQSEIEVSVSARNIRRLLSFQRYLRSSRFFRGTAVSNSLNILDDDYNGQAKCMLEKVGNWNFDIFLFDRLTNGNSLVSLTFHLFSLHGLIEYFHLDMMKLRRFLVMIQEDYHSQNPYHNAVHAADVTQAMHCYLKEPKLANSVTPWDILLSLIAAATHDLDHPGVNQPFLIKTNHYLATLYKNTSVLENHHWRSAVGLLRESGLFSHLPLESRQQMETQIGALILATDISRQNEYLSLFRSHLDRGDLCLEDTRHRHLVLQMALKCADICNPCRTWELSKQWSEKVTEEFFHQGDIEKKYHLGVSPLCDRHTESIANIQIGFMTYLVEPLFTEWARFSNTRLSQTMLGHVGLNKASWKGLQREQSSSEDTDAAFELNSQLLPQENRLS
Chain of PDE9A (O76083 whole entry): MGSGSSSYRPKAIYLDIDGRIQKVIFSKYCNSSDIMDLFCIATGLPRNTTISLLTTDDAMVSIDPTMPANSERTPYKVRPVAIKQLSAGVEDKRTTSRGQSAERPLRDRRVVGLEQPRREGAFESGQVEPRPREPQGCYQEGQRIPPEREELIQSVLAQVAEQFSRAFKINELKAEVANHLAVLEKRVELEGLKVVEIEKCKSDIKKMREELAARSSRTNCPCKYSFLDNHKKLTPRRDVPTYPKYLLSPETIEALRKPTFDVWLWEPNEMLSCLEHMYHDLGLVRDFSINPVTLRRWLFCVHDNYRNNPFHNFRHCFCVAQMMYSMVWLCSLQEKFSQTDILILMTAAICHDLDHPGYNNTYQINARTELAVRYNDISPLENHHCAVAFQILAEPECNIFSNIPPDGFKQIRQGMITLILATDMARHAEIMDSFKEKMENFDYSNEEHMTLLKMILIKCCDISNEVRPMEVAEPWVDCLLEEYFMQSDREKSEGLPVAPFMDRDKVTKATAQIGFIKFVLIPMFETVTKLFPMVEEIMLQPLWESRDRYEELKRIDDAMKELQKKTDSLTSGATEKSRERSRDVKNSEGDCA

Compound: COc1cc2ncnc(N3CC[C@@H](Oc4cnc5ccccc5n4)C3)c2cc1OC [PQ10]
- IC50 of PQ10 cAMP (PDE8A): Inactive
- IC50 of PQ10 cGMP (PDE9A): Inactive
- IC50 of PQ10 cAMP (PDE7A): Inactive
- IC50 of PQ10 cGMP (PDE6A/B): Inactive
- IC50 (H1299 cells): 1690 nM
- IC50 (HOP62 cells; Homo sapiens, HOP-62, HOP62, 72 hours, 5% serum, read-out: Growth inhibition IC50): 1010 nM
- growth of vector control HOP62 cells (HOP62 cells; shCTL, PQ10 2 µmol/L): effectively inhibited
- MAPK signaling, ERK1/2 (p42/44) phosphorylation at T202/Y204 [1]: concentration- and time-dependent inhibition
- phosphorylation of c-RAF at serine 338 and serine 259 [1]: did not affect
- reduction of colony formation ([2]; 0.1 µmol/L, HOP62 vector control cells): 54.4%
- IC50 ([2]; Homo sapiens, HOP-62, 336 h, HOP62 shCTL, 14 days of treatment): 98 nM
- reduction of colony formation ([3]; 0.1 µmol/L, PDE10 knockdown HOP62 cells): 12.3%
- IC50 ([3]; Homo sapiens, HOP-62, 336 h, HOP62 shPDE10, 14 days of treatment): 172 nM
- phosphorylation level of β-catenin at pSer675 (β-catenin in H1299 cells): no change
- phosphorylation of β-catenin at pSer552 (β-catenin in H1299 cells; concentration-dependent, 0.5-1 hour): increased the phosphorylation
